{"source": "patent US5734015A", "about": "“Family of linear antimicrobial peptides from hagfish intestine” (Magainin Pharmaceuticals Inc., priority 1996, dated 1998)", "test_in_all_cases": "Antibiotic activity, MIC by standard methodology", "type_in_all_cases": "cell-based", "key": {"P. aeruginosa": {"system": "P. aeruginosa", "description": "(§1) Chemical synthesis of the sequence (SEQ ID NO. 4) corresponding to Peptides 1 and 2 (SEQ ID NOS: 1 and 2 respectively) containing native (unmodified) tryptophan was achieved by SPPS, using Fmoc chemistry."}, "E. coli": {"system": "E. coli", "description": "as §1"}, "C. albicans": {"system": "C. albicans", "description": "as §1"}, "S. aureus": {"system": "S. aureus", "description": "as §1"}}, "note": "No end group written: not given here.", "data": [{"sequence": "GFFKKAWRKVKHAGRRVLDTAKGVGRHYVNNWLNRYR [SEQ ID NO. 4]", "values": [{"measurement": "minimum inhibitory concentration (MIC)", "setting": "P. aeruginosa", "result": 8, "unit": "µg/mL"}, {"measurement": "minimum inhibitory concentration (MIC)", "setting": "E. coli", "result": 8, "unit": "µg/mL"}, {"measurement": "minimum inhibitory concentration (MIC)", "setting": "C. albicans", "result": "> 256", "unit": "µg/mL"}, {"measurement": "minimum inhibitory concentration (MIC)", "setting": "S. aureus", "result": 8, "unit": "µg/mL"}]}]}
